According to patent publication US9850283B2, “Macrocyclic inhibitors of the PD-1/PD-L1 and CD80(B7-1)/PD-L1 protein/protein interactions” (BRISTOL-MYERS SQUIBB COMPANY, priority 2013, dated 2017):
pIC50: −log10 of the molar value. Positions of bridges follow the written chain, without caps; N, C: chain ends. Non-standard residues stand in square brackets, D forms with d. Residues, ends and D or L forms follow the SMILES beside them. Ala(thiazol-5-yl) = N[C@@H](Cc1cncs1)C(=O)O; NMeNle = CCCC[C@H](NC)C(=O)O; NMeA = CN[C@@H](C)C(=O)O; Nle = CCCC[C@H](N)C(=O)O; Orn = NCCC[C@H](N)C(=O)O; Dab = NCC[C@H](N)C(=O)O; Sar = CNCC(=O)O

Key:
[1] = biological target: T1, LK35.2-hPD-L1 cells / PE-labeled PD-1-Ig (Homo sapiens, UniProt Q9NZQ7); experiment: LK35.2-hPD-L1 cell binding high-content screening assay; format: cell-based; details: cluster symbol; cell line of CBA not given (LK35.2-hPD-L1 or 293T-hPD-L1); read-out: CBA IC50 cluster
T1 construct: expressed in transfected cells; host or cells: LK35.2 mouse B cell line
T1 sequence (Q9NZQ7 19-290): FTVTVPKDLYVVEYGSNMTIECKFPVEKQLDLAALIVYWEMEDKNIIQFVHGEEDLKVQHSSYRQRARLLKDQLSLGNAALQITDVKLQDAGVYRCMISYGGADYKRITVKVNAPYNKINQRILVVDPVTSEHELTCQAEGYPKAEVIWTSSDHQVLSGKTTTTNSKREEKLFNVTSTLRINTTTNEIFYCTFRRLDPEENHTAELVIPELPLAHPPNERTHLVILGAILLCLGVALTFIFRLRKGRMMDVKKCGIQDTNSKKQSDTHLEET
How it was run: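 Mouse LK35.2 B cells stably overexpressing human PD-L1 were cultured overnight in RPMI with 10% FCS, then given compound and PE-labeled human PD-1-Ig (1 nM final) for 1 h at 37 °C. After three dPBS washes, bound fluorescence was quantified by high-content imaging.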

Human PD-L1/PD-1 = biological target: T2, Human PD-L1/PD-1 (Homo sapiens, UniProt Q9NZQ7); experiment: HTRF PD-1-Ig/PD-L1-His binding assay (human PD-L1); details: cluster symbol; read-out: HTRF IC50 cluster
T2 construct: made in house; host or cells: HEK293T
T2 sequence (Q9NZQ7 with tags, fused parts or gaps): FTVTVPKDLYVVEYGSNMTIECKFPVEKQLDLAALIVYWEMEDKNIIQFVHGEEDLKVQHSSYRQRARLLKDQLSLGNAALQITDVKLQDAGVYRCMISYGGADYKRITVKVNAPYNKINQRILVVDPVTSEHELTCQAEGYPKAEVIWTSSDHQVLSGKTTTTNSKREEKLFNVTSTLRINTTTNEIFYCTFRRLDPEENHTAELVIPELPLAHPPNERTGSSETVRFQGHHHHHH
How it was run: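 Soluble PD-1-Ig binding to PD-L1-His measured by HTRF in dPBS with 0.1% BSA and 0.05% Tween-20. Detection used europium cryptate anti-Ig antibody (1 nM final) and APC anti-His antibody (20 nM final) added on top of the binding reaction.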

Structure (SMILES) | pIC50 [1] | pIC50 (Human PD-L1/PD-1)
CCCC[C@H]1C(=O)N(C)[C@@H](CCCC)C(=O)N[C@@H](CCCNC(=N)N)C(=O)N[C@H](C(=O)NCC(N)=O)CSCC(=O)N[C@@H](Cc2ccccc2)C(=O)N(C)[C@@H](C)C(=O)N[C@@H](CC(N)=O)C(=O)N2CCC[C@H]2C(=O)N[C@@H](CCN)C(=O)N[C@@H](CC(C)C)C(=O)N(C)CC(=O)N[C@@H](Cc2c[nH]c3ccccc23)C(=O)N[C@@H](CO)C(=O)N[C@@H](Cc2c[nH]c3ccccc23)C(=O)N1C [Example 1062] ({CH2CO}-F[NMeA]NP[Dab]L[Sar]WSW[NMeNle][NMeNle]RCG-NH2; thioether N-14) | 7.14 to 8.32 | 7.52 to 8.17
CCCC[C@H]1C(=O)N(C)[C@@H](CCCC)C(=O)N[C@@H](CCCNC(=N)N)C(=O)N[C@H](C(=O)NCC(N)=O)CSCC(=O)N[C@@H](Cc2ccccc2)C(=O)N(C)[C@@H](C)C(=O)N[C@@H](CC(N)=O)C(=O)N2CCC[C@H]2C(=O)N[C@@H](CC(N)=O)C(=O)N[C@@H](CC(C)C)C(=O)N(C)CC(=O)N[C@@H](Cc2c[nH]c3ccccc23)C(=O)N[C@@H](CO)C(=O)N[C@@H](Cc2c[nH]c3ccccc23)C(=O)N1C [Example 1063] ({CH2CO}-F[NMeA]NPNL[Sar]WSW[NMeNle][NMeNle]RCG-NH2; thioether N-14) | < 7.13 | < 7.52
CCCC[C@H]1C(=O)N(C)[C@@H](CCCC)C(=O)N[C@@H](CCCNC(=N)N)C(=O)N[C@H](C(=O)NCC(N)=O)CSCC(=O)N[C@@H](Cc2ccccc2)C(=O)N(C)[C@@H](C)C(=O)N[C@@H](CC(N)=O)C(=O)N2CCC[C@H]2C(=O)N[C@@H](CC(=O)O)C(=O)N[C@@H](CC(C)C)C(=O)N(C)CC(=O)N[C@@H](Cc2c[nH]c3ccccc23)C(=O)N[C@@H](CO)C(=O)N[C@@H](Cc2c[nH]c3ccccc23)C(=O)N1C [Example 1064] ({CH2CO}-F[NMeA]NPDL[Sar]WSW[NMeNle][NMeNle]RCG-NH2; thioether N-14) | < 7.13 | < 7.52
CCCC[C@H]1C(=O)N(C)[C@@H](CCCC)C(=O)N[C@@H](CCCNC(=N)N)C(=O)N[C@H](C(=O)NCC(N)=O)CSCC(=O)N[C@@H](Cc2ccccc2)C(=O)N(C)[C@@H](C)C(=O)N[C@@H](CC(N)=O)C(=O)N2CCC[C@H]2C(=O)N[C@@H](Cc2cnc[nH]2)C(=O)N[C@@H](CC(C)C)C(=O)N(C)CC(=O)N[C@@H](Cc2c[nH]c3ccccc23)C(=O)N[C@H](CO)C(=O)N[C@@H](Cc2c[nH]c3ccccc23)C(=O)N1C [Example 1065] ({CH2CO}-F[NMeA]NPHL[Sar]W[dS]W[NMeNle][NMeNle]RCG-NH2; thioether N-14) | < 7.13 | < 7.52
CCCC[C@H]1C(=O)N(C)[C@@H](CCCC)C(=O)N[C@@H](CCCNC(=N)N)C(=O)N[C@H](C(=O)NCC(N)=O)CSCC(=O)N[C@@H](Cc2ccccc2)C(=O)N(C)[C@@H](C)C(=O)N[C@@H](CC(N)=O)C(=O)N2CCC[C@H]2C(=O)N[C@@H](Cc2cncs2)C(=O)N[C@@H](CC(C)C)C(=O)N(C)CC(=O)N[C@@H](Cc2c[nH]c3ccccc23)C(=O)N[C@@H](CO)C(=O)N[C@@H](Cc2c[nH]c3ccccc23)C(=O)N1C [Example 1067] ({CH2CO}-F[NMeA]NP[Ala(thiazol-5-yl)]L[Sar]WSW[NMeNle][NMeNle]RCG-NH2; thioether N-14) | < 7.13 | < 7.52
CCCC[C@H]1C(=O)N(C)[C@@H](CCCC)C(=O)N[C@@H](CCCNC(=N)N)C(=O)N[C@H](C(=O)NCC(N)=O)CSCC(=O)N[C@@H](Cc2ccccc2)C(=O)N(C)[C@@H](C)C(=O)N[C@@H](CC(N)=O)C(=O)N2CCC[C@H]2C(=O)N[C@@H](Cc2cnc[nH]2)C(=O)N[C@@H](CC(C)C)C(=O)N(C)CC(=O)N[C@@H](Cc2c[nH]c3ccccc23)C(=O)N[C@@H](Cc2cnc[nH]2)C(=O)N[C@@H](Cc2c[nH]c3ccccc23)C(=O)N1C [Example 1068] ({CH2CO}-F[NMeA]NPHL[Sar]WHW[NMeNle][NMeNle]RCG-NH2; thioether N-14) | < 7.13 | < 7.52
CCCC[C@H]1C(=O)N(C)[C@@H](CCCC)C(=O)N[C@@H](CCCNC(=N)N)C(=O)N[C@H](C(=O)NCC(N)=O)CSCC(=O)N[C@@H](Cc2ccccc2)C(=O)N(C)[C@@H](C)C(=O)N[C@@H](CC(N)=O)C(=O)N2CCC[C@H]2C(=O)N[C@@H](Cc2cnc[nH]2)C(=O)N[C@@H](CC(C)C)C(=O)N(C)CC(=O)N[C@@H](Cc2c[nH]c3ccccc23)C(=O)N[C@@H](CCCCN)C(=O)N[C@@H](Cc2c[nH]c3ccccc23)C(=O)N1C [Example 1069] ({CH2CO}-F[NMeA]NPHL[Sar]WKW[NMeNle][NMeNle]RCG-NH2; thioether N-14) | 7.14 to 8.32 | 8.17 to 9.41
CCCC[C@H]1C(=O)N(C)[C@@H](CCCC)C(=O)N[C@@H](CCCNC(=N)N)C(=O)N[C@H](C(=O)NCC(N)=O)CSCC(=O)N[C@@H](Cc2ccccc2)C(=O)N(C)[C@@H](C)C(=O)N[C@@H](CC(N)=O)C(=O)N2CCC[C@H]2C(=O)N[C@@H](Cc2cnc[nH]2)C(=O)N[C@@H](CC(C)C)C(=O)N(C)CC(=O)N[C@@H](Cc2c[nH]c3ccccc23)C(=O)N[C@@H](CCCN)C(=O)N[C@@H](Cc2c[nH]c3ccccc23)C(=O)N1C [Example 1070] ({CH2CO}-F[NMeA]NPHL[Sar]W[Orn]W[NMeNle][NMeNle]RCG-NH2; thioether N-14) | 7.14 to 8.32 | 7.52 to 8.17
CCCC[C@@H]1NC(=O)[C@H](CCCC)N(C)C(=O)[C@H](CCCC)N(C)C(=O)[C@H](Cc2c[nH]c3ccccc23)NC(=O)[C@H](CO)NC(=O)[C@H](Cc2c[nH]c3ccccc23)NC(=O)CN(C)C(=O)[C@H](CC(C)C)NC(=O)[C@H](Cc2cnc[nH]2)NC(=O)[C@@H]2CCCN2C(=O)[C@H](CC(N)=O)NC(=O)[C@H](C)N(C)C(=O)[C@H](Cc2ccccc2)NC(=O)CSC[C@@H](C(=O)NCC(N)=O)NC1=O [Example 1071] ({CH2CO}-F[NMeA]NPHL[Sar]WSW[NMeNle][NMeNle][Nle]CG-NH2; thioether N-14) | < 7.13 | < 7.52
CCCC[C@H]1C(=O)N(C)[C@@H](CCCC)C(=O)N[C@@H](CCCNC(=N)N)C(=O)N[C@@H](C(=O)NCC(N)=O)CSCC(=O)N[C@@H](Cc2cnc[nH]2)C(=O)N(C)[C@@H](C)C(=O)N[C@@H](CC(N)=O)C(=O)N2CCC[C@H]2C(=O)N[C@@H](Cc2cnc[nH]2)C(=O)N[C@@H](CC(C)C)C(=O)N(C)CC(=O)N[C@@H](Cc2c[nH]c3ccccc23)C(=O)N[C@@H](CO)C(=O)N[C@@H](Cc2c[nH]c3ccccc23)C(=O)N1C [Example 1072] ({CH2CO}-H[NMeA]NPHL[Sar]WSW[NMeNle][NMeNle]R[dC]G-NH2; thioether N-14) | < 7.13 | < 7.52

The remaining lines, values ahead:

pIC50 [1] | pIC50 (Human PD-L1/PD-1) | Structure (SMILES)
< 7.13 | < 7.52 | CCCC[C@H]1C(=O)N(C)[C@@H](CCCC)C(=O)N[C@@H](CCCNC(=N)N)C(=O)N[C@H](C(=O)NCC(N)=O)CSCC(=O)N[C@@H](Cc2ccccc2)C(=O)N(C)[C@@H](C)C(=O)N[C@@H](CC(N)=O)C(=O)N2CCC[C@H]2C(=O)N[C@@H](Cc2cnc[nH]2)C(=O)N[C@@H](CC(C)C)C(=O)N(C)CC(=O)N[C@@H](Cc2c[nH]cn2)C(=O)N[C@@H](CO)C(=O)N[C@@H](Cc2c[nH]c3ccccc23)C(=O)N1C [Example 1073] ({CH2CO}-F[NMeA]NPHL[Sar]HSW[NMeNle][NMeNle]RCG-NH2; thioether N-14)
< 7.13 | < 7.52 | CCCC[C@H]1C(=O)N(C)[C@@H](CCCC)C(=O)N[C@@H](CCCNC(=N)N)C(=O)N[C@H](C(=O)NCC(N)=O)CSCC(=O)N[C@@H](Cc2ccccc2)C(=O)N(C)[C@@H](C)C(=O)N[C@@H](CC(N)=O)C(=O)N2CCC[C@H]2C(=O)N[C@@H](Cc2cnc[nH]2)C(=O)N[C@@H](CC(C)C)C(=O)N[C@@H](CCC(N)=O)C(=O)N[C@@H](Cc2c[nH]c3ccccc23)C(=O)N[C@@H](CO)C(=O)N[C@@H](Cc2c[nH]c3ccccc23)C(=O)N1C [Example 1074] ({CH2CO}-F[NMeA]NPHLQWSW[NMeNle][NMeNle]RCG-NH2; thioether N-14)
< 7.13 | < 7.52 | CCCC[C@H]1C(=O)N(C)[C@@H](CCCC)C(=O)N[C@@H](CCCNC(=N)N)C(=O)N[C@H](C(=O)NCC(N)=O)CSCC(=O)N[C@@H](Cc2ccccc2)C(=O)N(C)[C@@H](C)C(=O)N[C@@H](CC(N)=O)C(=O)N2CCC[C@H]2C(=O)N[C@@H](Cc2cnc[nH]2)C(=O)N[C@@H](CC(C)C)C(=O)N[C@@H](CC(N)=O)C(=O)N[C@@H](Cc2c[nH]c3ccccc23)C(=O)N[C@@H](CO)C(=O)N[C@@H](Cc2c[nH]c3ccccc23)C(=O)N1C [Example 1075] ({CH2CO}-F[NMeA]NPHLNWSW[NMeNle][NMeNle]RCG-NH2; thioether N-14)
7.14 to 8.32 | 7.52 to 8.17 | CCCC[C@H]1C(=O)N(C)[C@@H](CCCC)C(=O)N[C@@H](CCCNC(=N)N)C(=O)N[C@H](C(=O)NCC(=O)O)CSCC(=O)N[C@@H](Cc2ccccc2)C(=O)N(C)[C@@H](C)C(=O)N[C@@H](CC(N)=O)C(=O)N2CCC[C@H]2C(=O)N[C@@H](Cc2cnc[nH]2)C(=O)N[C@@H](CC(C)C)C(=O)N(C)CC(=O)N[C@@H](Cc2c[nH]c3ccccc23)C(=O)N[C@@H](CO)C(=O)N[C@@H](Cc2c[nH]c3ccccc23)C(=O)N1C [Example 1076] ({CH2CO}-F[NMeA]NPHL[Sar]WSW[NMeNle][NMeNle]RCG-OH; thioether N-14)
< 7.13 | 7.52 to 8.17 | CCCC[C@H]1C(=O)N(C)[C@@H](CCCC)C(=O)N[C@@H](CCCNC(=N)N)C(=O)N[C@H](C(=O)NCC(N)=O)CSCC(=O)N[C@@H](Cc2ccccc2)C(=O)N(C)[C@@H](C)C(=O)N[C@@H](CC(N)=O)C(=O)N2CCC[C@H]2C(=O)N[C@@H](CCCCN)C(=O)N[C@@H](CC(C)C)C(=O)N(C)CC(=O)N[C@@H](Cc2c[nH]c3ccccc23)C(=O)N[C@@H](CO)C(=O)N[C@@H](Cc2c[nH]c3ccccc23)C(=O)N1C [Example 1077] ({CH2CO}-F[NMeA]NPKL[Sar]WSW[NMeNle][NMeNle]RCG-NH2; thioether N-14)
